# From article PMC9199881 (Clinical and Translational Science, 2022)
# What was measured:
# [1] = tested on: human ether-a-go-go-related gene (hERG) current; conditions: 10 μM; hERG-transfected HEK293 cells; ref unpublished preclinical safety studies; cited from earlier work
# other CYP enzymes = conditions: enzymatic studies; cited from earlier work
# [2] = tested on: cytochrome P450 3A4 (CYP3A4); conditions: enzymatic studies; cited from earlier work
# patients with PV and ITP = conditions: rilzabrutinib 400 mg b.i.d.; cited from earlier work
# healthy subjects [3] = assay: Safety assessment; format: in vivo, human; conditions: Part A
# [4] = tested on: rat antibody-mediated Arthus model; conditions: cited from earlier work
# healthy subjects [5] = assay: Safety assessment; format: in vivo, human; conditions: Part B
# [6] = rilzabrutinib 100 mg + ritonavir 100 mg
# [7] = 400 mg rilzabrutinib plus ritonavir
# [8] = rilzabrutinib 400 mg + ritonavir 100 mg, first column of the group
smiles,measurement,setting,value
"CC(C)(/C=C(\C#N)C(=O)N1CCC[C@@H](n2nc(-c3ccc(Oc4ccccc4)cc3F)c3c(N)ncnc32)C1)N1CCN(C2COC2)CC1 [Rilzabrutinib, rilzabrutinib]",signal on hERG current,[1],no signal
same,interaction with other CYP enzymes,other CYP enzymes,no significant interaction
same,interaction with CYP3A4,[2],substrate for and weak inhibitor
same,prolonged QTcF interval among safety concerns,patients with PV and ITP,did not report prolonged QTcF interval
same,"serious TEAEs, deaths, or TEAEs leading to study drug interruption/discontinuation",healthy subjects [3],"no serious TEAEs, deaths, or TEAEs leading to study drug interruption/discontinuation"
same,severity of rilzabrutinib-related TEAEs,healthy subjects [3],mostly mild (grade 1)
same,participants with TEAEs deemed related to rilzabrutinib treatment,"healthy subjects [3]; 100 mg plus ritonavir 100 mg, one event in one participant",9.1%
same,participants with TEAEs deemed related to rilzabrutinib treatment (GI-related),"healthy subjects [3]; 1200 mg, five events in three participants",75%
same,rilzabrutinib-related TEAEs,healthy subjects [3]; following 100 mg rilzabrutinib,no rilzabrutinib‐related TEAEs reported
same,"Treatment-related TEAE: Diarrhea, n (%)",healthy subjects [3]; rilzabrutinib 100 mg,0 n (%)
same,"Treatment-related TEAE: Dizziness, n (%)",healthy subjects [3]; rilzabrutinib 100 mg,0 n (%)
same,"Treatment-related TEAE: Gastrointestinal disorders, n (%)",healthy subjects [3]; rilzabrutinib 100 mg,0 n (%)
same,"Treatment-related TEAE: Nausea, n (%)",healthy subjects [3]; rilzabrutinib 100 mg,0 n (%)
same,"Treatment-related TEAE: Nervous system disorders, n (%)",healthy subjects [3]; rilzabrutinib 100 mg,1 (8.3) n (%)
same,"Treatment-related TEAE: Orthostatic hypotension, n (%)",healthy subjects [3]; rilzabrutinib 100 mg,0 n (%)
same,"Treatment-related TEAE: Subjects with ≥1 TEAE, n (%)",healthy subjects [3]; rilzabrutinib 100 mg,0 n (%)
same,"Treatment-related TEAE: Vascular disorders, n (%)",healthy subjects [3]; rilzabrutinib 100 mg,0 n (%)
same,"Treatment-related TEAE: Vomiting, n (%)",healthy subjects [3]; rilzabrutinib 100 mg,0 n (%)
same,"Treatment-related TEAE: Diarrhea, n (%)",healthy subjects [3]; [6],0 n (%)
same,"Treatment-related TEAE: Dizziness, n (%)",healthy subjects [3]; [6],1 (9.1) n (%)
same,"Treatment-related TEAE: Gastrointestinal disorders, n (%)",healthy subjects [3]; [6],0 n (%)
same,"Treatment-related TEAE: Nausea, n (%)",healthy subjects [3]; [6],0 n (%)
same,"Treatment-related TEAE: Orthostatic hypotension, n (%)",healthy subjects [3]; [6],0 n (%)
same,"Treatment-related TEAE: Subjects with ≥1 TEAE, n (%)",healthy subjects [3]; [6],1 (9.1) n (%)
same,"Treatment-related TEAE: Vascular disorders, n (%)",healthy subjects [3]; [6],0 n (%)
same,"Treatment-related TEAE: Vomiting, n (%)",healthy subjects [3]; [6],0 n (%)
same,"Treatment-related TEAE: Diarrhea, n (%)",healthy subjects [3]; rilzabrutinib 1200 mg,2 (50.0) n (%)
same,"Treatment-related TEAE: Dizziness, n (%)",healthy subjects [3]; rilzabrutinib 1200 mg,1 (25.0) n (%)
same,"Treatment-related TEAE: Gastrointestinal disorders, n (%)",healthy subjects [3]; rilzabrutinib 1200 mg,3 (75.0) n (%)
same,"Treatment-related TEAE: Nausea, n (%)",healthy subjects [3]; rilzabrutinib 1200 mg,2 (50.0) n (%)
same,"Treatment-related TEAE: Nervous system disorders, n (%)",healthy subjects [3]; rilzabrutinib 1200 mg,1 (25.0) n (%)
same,"Treatment-related TEAE: Orthostatic hypotension, n (%)",healthy subjects [3]; rilzabrutinib 1200 mg,1 (25.0) n (%)
same,"Treatment-related TEAE: Subjects with ≥1 TEAE, n (%)",healthy subjects [3]; rilzabrutinib 1200 mg,3 (75.0) n (%)
same,"Treatment-related TEAE: Vascular disorders, n (%)",healthy subjects [3]; rilzabrutinib 1200 mg,1 (25.0) n (%)
same,"Treatment-related TEAE: Vomiting, n (%)",healthy subjects [3]; rilzabrutinib 1200 mg,1 (25.0) n (%)
same,tolerability,healthy subjects [3]; single dose of 100 mg,well tolerated
same,anti-inflammatory effects,[4],rapid and significant anti‐inflammatory effects
same,serious TEAEs or deaths,healthy subjects [5],no serious TEAEs or deaths
same,"Treatment-related TEAE: Abdominal pain, n (%)",healthy subjects [5]; 400 mg alone,3 (9.4) n (%)
same,"Treatment-related TEAE: Diarrhea, n (%)",healthy subjects [5]; 400 mg alone,9 (28.1) n (%)
same,"Treatment-related TEAE: Dizziness, n (%)",healthy subjects [5]; 400 mg alone,0 n (%)
same,"Treatment-related TEAE: Dysgeusia, n (%)",healthy subjects [5]; 400 mg alone,1 (3.1) n (%)
same,"Treatment-related TEAE: Frequent bowel movements, n (%)",healthy subjects [5]; 400 mg alone,0 n (%)
same,"Treatment-related TEAE: Gastrointestinal disorders, n (%)",healthy subjects [5]; 400 mg alone,13 (40.6) n (%)
same,"Treatment-related TEAE: Headache, n (%)",healthy subjects [5]; 400 mg alone,1 (3.1) n (%)
same,"Treatment-related TEAE: Herpex simplex, n (%)",healthy subjects [5]; 400 mg alone,0 n (%)
same,"Treatment-related TEAE: Infections and infestations, n (%)",healthy subjects [5]; 400 mg alone,0 n (%)
same,"Treatment-related TEAE: Lethargy, n (%)",healthy subjects [5]; 400 mg alone,0 n (%)
same,"Treatment-related TEAE: Nervous system disorders, n (%)",healthy subjects [5]; 400 mg alone,2 (6.3) n (%)
same,"Treatment-related TEAE: Somnolence, n (%)",healthy subjects [5]; 400 mg alone,0 n (%)
same,"Treatment-related TEAE: Subjects with ≥1 TEAE, n (%)",healthy subjects [5]; 400 mg alone,14 (43.8) n (%)
same,"Treatment-related TEAE: Vomiting, n (%)",healthy subjects [5]; 400 mg alone,0 n (%)
same,incidence of treatment-related TEAEs,healthy subjects [5]; 400 mg alone,43.8%
same,participants with diarrhea,healthy subjects [5]; 400 mg alone,28.1%
same,incidence of treatment-related TEAEs,healthy subjects [5]; [7],44.1%
same,participants with diarrhea,healthy subjects [5]; [7],35.3%
same,moderate (grade 2) rilzabrutinib related TEAEs,"healthy subjects [5]; nausea with 400 mg and diarrhea with 400 mg plus 100 mg ritonavir, in two participants",two moderate (grade 2) rilzabrutinib related TEAEs
same,"Treatment-related TEAE: Abdominal pain, n (%)",healthy subjects [5]; [8],0 n (%)
same,"Treatment-related TEAE: Diarrhea, n (%)",healthy subjects [5]; [8],12 (35.3) n (%)
same,"Treatment-related TEAE: Dizziness, n (%)",healthy subjects [5]; [8],0 n (%)
same,"Treatment-related TEAE: Dysgeusia, n (%)",healthy subjects [5]; [8],2 (5.9) n (%)
same,"Treatment-related TEAE: Frequent bowel movements, n (%)",healthy subjects [5]; [8],1 (2.9) n (%)
same,"Treatment-related TEAE: Gastrointestinal disorders, n (%)",healthy subjects [5]; [8],14 (41.2) n (%)
same,"Treatment-related TEAE: Headache, n (%)",healthy subjects [5]; [8],0 n (%)
same,"Treatment-related TEAE: Herpex simplex, n (%)",healthy subjects [5]; [8],1 (2.9) n (%)
same,"Treatment-related TEAE: Infections and infestations, n (%)",healthy subjects [5]; [8],1 (2.9) n (%)
same,"Treatment-related TEAE: Lethargy, n (%)",healthy subjects [5]; [8],0 n (%)
